Laboratory results reported in patent US7026308B1, “Topical anti-microbial compositions” (The Procter & Gamble Company, priority 1999, dated 2006).

How the values were obtained:
[1] = tested on: Malassezia furfur (ATCC 14521); assay: Kill Rate Test (KRT) in mDixon broth; assay type: cell-based
Procedure: Experiments were conducted to investigate the efficacy of the composition of the present invention to inhibit the survival, growth, and proliferation of microorganisms in topical compositions. The test microorganism was Malassezia furfur. The Kill Rate Test (KRT) results are indicative of anti-fungal efficacy. Generally, the greater the inhibition of fungal growth in this test, the better the anti-fungal efficacy of the compound(s) tested. A flask containing mDixon broth medium (see Gueho, et al. Antoinie Leeuwenhoek (1996), no. 69, 337–55, which description is incorporated by reference herein) was inoculated with Malassezia furfur. Specific concentrations of active(s) were then added to the flask Samples were then withdrawn from the flask at specified time points, diluted in sterile water, and spread across the surface of a mDixon agar plate. […] The lower the CFU/ml count, the better activity the active(s) have against M. furfur. […] Experimental Procedure • 1. […] For Mg^2+, Ag^+, Mn ^2+, Bi^3+, and Na^+ Step 8 was repeated at the 24 and 48 hour time points.

[2] = tested on: Malassezia furfur (ATCC 14521); assay: Minimum Inhibitory Concentration (MIC) in mDixon agar; assay type: cell-based; settings: for MIC (ppm of metal ion) Alone: M. furfur, 5 days 30°; for MIC (ppm of metal ion) +0.5 ppm ZPT: metal ion in combination with 0.5 ppm ZPT (sub-MIC); for MIC (ppm of metal ion) +2 ppm ZPT: metal ion in combination with 2 ppm ZPT (sub-MIC); for MIC (ppm of metal ion) +4 ppm ZPT: metal ion in combination with 4 ppm ZPT (sub-MIC)
[3] = Table 2(a), 0.05% metal salt (with 10 ppm ZPT where labelled)
[4] = Table 2(a), 0.5% metal salt (with 10 ppm ZPT where labelled)
[5] = Table 2(b), 0.05% metal salt (with 10 ppm ZPT where labelled)
[6] = Table 2(b), 0.5% metal salt (with 10 ppm ZPT where labelled)

Structure (SMILES): O=S(=O)([O-])[O-].[Ag+].[Ag+] [Ag2SO4]
- Plate Area Colonized, 0 Hours [1, 3]: 3.97E+06 mm2
- Plate Area Colonized, 24 Hours [1, 3]: 7.46E+05 mm2
- Plate Area Colonized, 48 Hours [1, 3]: 1.22E+05 mm2
- Plate Area Colonized, 0 Hours [1, 4]: 3.97E+06 mm2
- Plate Area Colonized, 24 Hours [1, 4]: 1.65E+06 mm2
- Plate Area Colonized, 48 Hours [1, 4]: 1.00E+00 mm2

Structure (SMILES): [Cl][Bi]([Cl])[Cl] [BiCl3]
- Plate Area Colonized, 0 Hours [1, 3]: 3.97E+06 mm2
- Plate Area Colonized, 24 Hours [1, 3]: 1.96E+07 mm2
- Plate Area Colonized, 48 Hours [1, 3]: 3.03E+06 mm2
- Plate Area Colonized, 0 Hours [1, 4]: 3.97E+06 mm2
- Plate Area Colonized, 24 Hours [1, 4]: 1.11E+06 mm2
- Plate Area Colonized, 48 Hours [1, 4]: 3.42E+05 mm2

Structure (SMILES): [Cu+2] [Copper (2+)]
- MIC (ppm of metal ion) Alone [2]: 5000 ppm
- MIC (ppm of metal ion) +0.5 ppm ZPT [2]: 5000 ppm
- MIC (ppm of metal ion) +2 ppm ZPT [2]: <0.5 ppm
- MIC (ppm of metal ion) +4 ppm ZPT [2]: <0.005 ppm
- MIC (ppm of metal ion) +4 ppm ZPT ([2]; listed as copper ions): less than 0.005 ppm

Structure (SMILES): O=S(=O)([O-])[O-].[Cu+2] [CuSO4]
- Plate Area Colonized, 0 Hours [1, 5]: 2.12E+07 mm2
- Plate Area Colonized, 4 Hours [1, 5]: 9.49E+07 mm2
- Plate Area Colonized, 24 Hours [1, 5]: 1.81E+08 mm2
- Plate Area Colonized, 48 Hours [1, 5]: 3.32E+08 mm2
- Plate Area Colonized, 0 Hours [1, 6]: 2.12E+07 mm2
- Plate Area Colonized, 4 Hours [1, 6]: 1.00E+00 mm2
- Plate Area Colonized, 24 Hours [1, 6]: 1.00E+00 mm2
- Plate Area Colonized, 48 Hours [1, 6]: 1.00E+00 mm2

Structure (SMILES): [Hg+2] [Mercury (2+)]
- MIC (ppm of metal ion) Alone [2]: 50 ppm
- MIC (ppm of metal ion) +4 ppm ZPT [2]: 5 ppm

Structure (SMILES): O=S(=O)([O-])[O-].[Mg+2] [MgSO4]
- Plate Area Colonized, 0 Hours [1, 3]: 3.97E+06 mm2
- Plate Area Colonized, 24 Hours [1, 3]: 4.35E+06 mm2
- Plate Area Colonized, 48 Hours [1, 3]: 9.68E+06 mm2
- Plate Area Colonized, 0 Hours [1, 4]: 3.97E+06 mm2
- Plate Area Colonized, 24 Hours [1, 4]: 1.81E+07 mm2
- Plate Area Colonized, 48 Hours [1, 4]: 9.50E+06 mm2

Structure (SMILES): O=S(=O)([O-])[O-].[Mn+2] [MnSO4]
- Plate Area Colonized, 0 Hours [1, 3]: 3.97E+06 mm2
- Plate Area Colonized, 24 Hours [1, 3]: 1.97E+07 mm2
- Plate Area Colonized, 48 Hours [1, 3]: 5.91E+06 mm2
- Plate Area Colonized, 0 Hours [1, 4]: 3.97E+06 mm2
- Plate Area Colonized, 24 Hours [1, 4]: 1.16E+05 mm2
- Plate Area Colonized, 48 Hours [1, 4]: 2.35E+02 mm2

Structure (SMILES): O=S(=O)([O-])[O-].[Na+].[Na+] [Na2SO4]
- Plate Area Colonized, 0 Hours [1, 3]: 3.97E+06 mm2
- Plate Area Colonized, 24 Hours [1, 3]: 3.75E+07 mm2
- Plate Area Colonized, 48 Hours [1, 3]: 3.42E+06 mm2
- Plate Area Colonized, 0 Hours [1, 4]: 3.97E+06 mm2
- Plate Area Colonized, 24 Hours [1, 4]: 1.44E+07 mm2
- Plate Area Colonized, 48 Hours [1, 4]: 2.95E+06 mm2

Structure (SMILES): [O-]n1ccccc1=S.[O-]n1ccccc1=S.[Zn+2] [ZPT, zinc salt of 1-hydroxy-2-pyridinethione, reference compound]
- Plate Area Colonized, 0 Hours ([1]; Table 2(a), 10 ppm): 3.97E+06 mm2
- Plate Area Colonized, 24 Hours ([1]; Table 2(a), 10 ppm): 2.52E+05 mm2
- Plate Area Colonized, 48 Hours ([1]; Table 2(a), 10 ppm): 2.30E+03 mm2
- Plate Area Colonized, 0 Hours ([1]; Table 2(b), 10 ppm): 2.12E+07 mm2
- Plate Area Colonized, 4 Hours ([1]; Table 2(b), 10 ppm): 3.49E+07 mm2
- Plate Area Colonized, 24 Hours ([1]; Table 2(b), 10 ppm): 6.44E+06 mm2
- Plate Area Colonized, 48 Hours ([1]; Table 2(b), 10 ppm): 4.86E+05 mm2

Structure (SMILES): [Zn+2] [Zinc (2+)]
- MIC (ppm of metal ion) Alone [2]: 5000 ppm
- MIC (ppm of metal ion) +0.5 ppm ZPT [2]: 500 ppm
- MIC (ppm of metal ion) +2 ppm ZPT [2]: 50 ppm
- MIC (ppm of metal ion) +4 ppm ZPT [2]: 5 ppm

Structure (SMILES): O=S(=O)([O-])[O-].[Zn+2] [ZnSO4]
- Plate Area Colonized, 0 Hours [1, 5]: 2.12E+07 mm2
- Plate Area Colonized, 4 Hours [1, 5]: 8.14E+07 mm2
- Plate Area Colonized, 24 Hours [1, 5]: 7.22E+07 mm2
- Plate Area Colonized, 48 Hours [1, 5]: 3.44E+08 mm2
- Plate Area Colonized, 0 Hours [1, 6]: 2.12E+07 mm2
- Plate Area Colonized, 4 Hours [1, 6]: 2.21E+07 mm2
- Plate Area Colonized, 24 Hours [1, 6]: 2.69E+06 mm2
- Plate Area Colonized, 48 Hours [1, 6]: 1.86E+05 mm2
